From US20060121180A1, “Metallic structures incorporating bioactive materials and methods for creating the same” (Medlogics Device Corporation, priority 2001, published 2006)

Legend:
[1] = Drug elution from coated stents into physiologic saline solution (spectrophotometric assay); type: physicochemical; conditions: Bx Velocity (316L) and Smart (nitinol) stents with Ni-P coating, physiologic saline changed daily (FIGS. 6 and 7)
Excerpt: Coated stents were formed using the same basic electroless deposition procedure in Example 1. However, in this example, instead of foil substrates, Johnson and Johnson Bx velocity stents (stainless steel) and Johnson and Johnson Smart stents (nitinol) were used as substrates. Bioactive composite structures in the form of layers were formed on the stents.
The amounts on the y-axis of the graphs represent the amount of bioactive material remaining on the stent after elution into a physiologic saline solution.
A similar anodization process as was used in the stent examples as was again applied to the foil substrates. After coating, the coated stent was placed in a physiologic saline solution and the solution changed daily. On the indicated days, the stent coatings were anodized. The amount of bioactive material released in each case was determined using a spectrophotometric assay.

[2] = Optical absorbance of elution bath from coated 316L stainless steel sample in 0.9% saline; type: physicochemical; conditions: 1 cm2 316L stainless steel sample
Excerpt: Table 3 depicts several experiments following the general procedures outlined in example 1, each with one time point and for a new bioactive material. M is the difference in absorbance between an elution bath from the sample containing the respective bioactive material and the absorbance from a sample with pure coating (i.e. control). In this instance, a 1 cm2 medical grade 316L stainless steel sample was coated using the above mentioned process.
M refers to the absorbance difference between coated with bioactive material and coated without bioactive material.

Molecule | time over which appreciable amounts were released [1] | ΔA (absorbance difference, coated with vs without bioactive material) ([2]; Time = 0, immediately after deposition) | ΔA (absorbance difference, coated with vs without bioactive material) ([2]; after seven days in 0.9% saline solution, characteristic absorbance wavelength in parentheses)
O=c1[nH]cc(F)c(=O)[nH]1 [Fluorouracil, 5-fluorouracil] | 40 days | – | –
albumin | 40 days | – | –
heparin | – | 0 | 2.4 (230 nm)
